Assay results reported in PubChem BioAssay (NCI).
Where “and” joins values, the source holds several entries; their conditions need not be identical. Equal entries are not always repeated.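 Tested at 5 concentrations; 48 h exposure; 96-well plates; endpoints linearly interpolated, else capped at highest concentration. GI50 = concentration required for 50% inhibition of growth. TGI marks complete inhibition of growth.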

Test system: MDA-MB-468 breast
Assay: growth of human tumour cells (NCI), 48 h

| SMILES | GI50 | TGI |
| --- | --- | --- |
| c1ccc(-c2[nH]ncc2-c2ccnc(-c3ccc(OCCn4ccnc4)cc3)c2)nc1 | 12200 nM | > 25000 nM |
| CC1(C)N=C(N)N=C(N)N1c1ccc(CCC(=O)Nc2ccc(S(=O)(=O)F)cc2)cc1 | 1010 nM | > 100000 nM |
| Cc1c(C(=N)C(C#N)C#N)c(=N)oc2c1ccc1ccccc12 | 13500 nM | 46000 nM |
| COc1ccc(OC)c(/C=C/c2nc(=S)n(-c3ccc(Cl)cc3)[nH]2)c1 | 3510 nM | 55400 nM |
| CC1=C(C(=O)Nc2ccccc2)C(c2ccc(N(C)C)cc2)C(C(=O)Nc2ccccc2)=C(C)N1 | 43900 nM | > 100000 nM |
| COc1cc2c(N3CCN(C(=O)Nc4ccc(OC(C)C)cc4)CC3)ncnc2cc1OCCCN1CCCCC1 | 14100 nM | 42900 nM |
| CCn1cc(C(=O)O)c(=O)c2cc(F)c(N3CCN(S(=O)(=O)c4cccc5ccccc45)CC3)cc21 | 2520 nM | 7320 nM |
| COc1cc2c(cc1Nc1nc(N3CCc4ccccc43)c3cc[nH]c3n1)N(C(=O)CN(C)C)CC2 | 1300 nM | 2830 nM |
| CC(C)(CO)CNC(=O)c1ccc2[nH]c(O)c(N=Nc3ccc(S(N)(=O)=O)cc3)c2c1 | > 17900 nM | > 25000 nM |
| CCN(CC)CCCNc1ccc(C)c2sc3ccccc3c(=O)c12 | 365 nM | 1270 nM |
| COc1ccc2c(N)ncc(C#Cc3cc(C(=O)Nc4ccc(CN5CCN(C)CC5)c(C(F)(F)F)c4)cnc3C)c2c1 | 2460 nM | 8940 nM |
| O=C1C=C[C@H](O)[C@@]2(CO)O[C@@H]12 | 4610 nM | 20000 nM |
| CCCCCCCCCCCC[N+]1(CCCCCCCCCCCC)CCCC(C)C1 (stereo unspecified) | 68.9 nM | 388 nM |
| CCN(CC)CCCC(C)NCC(=O)NC(c1ccc2c(c1)OCO2)c1cc(Cl)c2cccnc2c1O (stereo unspecified) | 1870 nM | 4500 nM |
| O=C(/C=C/C12c3ccccc3C(c3ccccc31)C1C(=O)NC(=O)C12)c1ccccn1 (stereo unspecified) | 1710 nM | 4030 nM |
| Fc1cccc(Cl)c1/C=N/Nc1nc(N/N=C/c2c(F)cccc2Cl)nc(N2CCCCC2)n1 | 1860 nM | 6890 nM |
| N#Cc1nc2c(S(=O)(=O)c3ccc(Cl)cc3)c(N)n(Nc3cccc(Cl)c3)c2nc1C#N | 7.06 nM | 195 nM |
| Cc1cccc(NC(=O)c2sc3nc4c(cc3c2N)C(=O)CCC4)c1 | 80.7 nM | 2660 nM |
| COc1ccc2sc3c(NCCCN)nc4ccccc4c3c(=O)c2c1 | 1560 nM | 3190 nM |
| CCN(CC)Cc1cc(Nc2nc(NC3CCC(N(C)C)CC3)c3ccccc3n2)ccc1OC (stereo unspecified) | 1640 nM | 3160 nM |
| CNCc1cccc2c1OCCOCCOCCN(C)S(=O)(=O)c1ccc(cc1)-c1cnc(N)c(n1)C(=O)N2 | 2620 nM | 14600 nM |
| CCN=c1sc2c(n1NC(=O)c1cc3ccc1CCc1ccc(cc1)CC3)C(=O)c1ccccc1C2=O | 719 nM | 1830 nM |
| Cn1nccc1Nc1nccc(-c2ccn([C@H](CO)c3ccc(Cl)c(F)c3)c(=O)c2)n1 | 18800 nM | 57900 nM |
| N#CC1c2ccccc2C=CN1C(=O)CCCl (stereo unspecified) | 2100 nM | 5740 nM |
| CN[C@@H](C)C(=O)N[C@H]1CN(S(=O)(=O)c2cccc(S(=O)(=O)N3CC[C@H]4CC[C@@H](C(=O)NC(c5ccccc5)c5ccccc5)N4C(=O)[C@@H](NC(=O)[C@H](C)NC)C3)c2)CC[C@H]2CC[C@@H](C(=O)NC(c3ccccc3)c3ccccc3)N2C1=O | < 10 nM | 81.9 nM |
| CCCCCOc1ccc(/C=N/Nc2cc(C)nc3ccc(Cl)cc23)cc1 | 1700 nM | 3370 nM |

| SMILES | GI50 | TGI |
| --- | --- | --- |
| Nc1nc2c(c3cnccc13)C(c1ccc(Cl)c(Cl)c1)Cc1cnccc1-2 (stereo unspecified) | 270 nM | 807 nM |
| FC(F)(F)Oc1cccc(-c2cc(NCCCCCCNc3cc(-c4cccc(OC(F)(F)F)c4)nc4ccc(N5CCCC5)cc34)c3cc(N4CCCC4)ccc3n2)c1 | 1590 nM | 3210 nM |
| CC(=O)O[C@H]1C(=O)[C@@]2(C)C([C@H](OC(=O)c3ccccc3)[C@]3(O)C[C@H](OC(=O)[C@H](O)[C@@H](NC(=O)c4ccccc4)c4ccccc4)C(C)=C1C3(C)C)[C@]1(OC(C)=O)CO[C@@H]1C[C@@H]2O (stereo partly specified) | < 5 nM | 54.5 nM |
| CNC(=O)c1ncccc1Nc1nc(Nc2cc3c(cc2OC)CCCN3C(=O)CN(C)C)nc2[nH]ccc12 | 435 nM | 2470 nM |
| Cc1nn(-c2ccc(Cl)cc2)c2ncnc(N/N=C/c3ccccc3O)c12 | 1710 nM and 1030 nM | 6460 nM and 7680 nM |
| O=C(OCc1ccc2c(Br)cc(Br)c(O)c2n1)c1cc2ccccc2[nH]1 | 419 nM | 1540 nM |
| O=C1/C(=C/c2ccc(Cl)c(Cl)c2)CN(C(=O)CCN2CCC(=NO)CC2)C/C1=C\c1ccc(Cl)c(Cl)c1 | 898 nM | 2400 nM |
| Cc1ccc2c(-c3ccnc(Nc4ccc5c(c4)OCCO5)n3)c(-c3ccc(C(F)(F)F)cc3)nn2n1 | 5190 nM | > 25000 nM |
| N#CC1(c2ccc(NC(=O)c3cccnc3NCc3ccncc3)cc2)CCCC1 | 7040 nM | 51800 nM |
| COc1ccc(OC)c(NCC(=O)n2nc(/C=C\c3ccc(O)c(OC)c3)cc2/C=C\c2ccc(O)c(OC)c2)c1 | 2850 nM | 23300 nM |
| CC(=O)ON1CCCC(P(=O)(OCOC(=O)C(C)(C)C)OCOC(=O)C(C)(C)C)C1=O (stereo unspecified) | 1010 nM | 5920 nM |
| O=C1c2cccc(Oc3ccccc3)c2C(=O)c2cccc(Oc3ccccc3)c21 | > 100000 nM | > 100000 nM |
| O=C1NC(=N[C@@H](CO)c2ccccc2)S/C1=C\c1ccc2ncccc2c1 | 5780 nM | > 25000 nM |
| OC1(c2ccc(Cl)c(C(F)(F)F)c2)CCN(CCCC(c2ccc(F)cc2)c2ccc(F)cc2)CC1 | 707 nM | 1370 nM |
| COC(=O)OC1C(O[C@H]2C[C@H]3[C@@H]4CC=C5C[C@@H](O)CC[C@]5(C)[C@H]4CC[C@]3(C)[C@H]2[C@H](C)C(=O)CCC(C)C)OCC(O)C1OC1OCC(O)C(O)C1OC(=O)c1ccc(OC)cc1 (stereo partly specified) | 111 nM | 1700 nM |
| C[C@]12CC[C@H]3[C@@H](CCC4=CC(=O)CC[C@@]43C)[C@@H]1CC[C@@H]2c1csc(N)n1 | 1170 nM | 18500 nM |
| Cn1c([N+](=O)[O-])cnc1C=C1C(=O)c2ccccc2C1=O | 7350 nM | 33100 nM |
| CCN1C(=S)N(CC)C2C1NC(=S)N2/N=C/C=C/c1ccccc1OC (stereo unspecified) | 347 nM | 31400 nM |
| O=C(Nc1cccc(-n2cc(-c3ccncc3)c(-c3cc(O)cc(Cl)c3)n2)c1)c1ccc(N2CCOCC2)c(C(F)(F)F)c1 | 3420 nM | 43300 nM |
| CN(C)CCCC1(c2ccc(F)cc2)OCc2cc(-c3cccc4[nH]ccc34)ccc21 (stereo unspecified) | 1790 nM | 3430 nM |
| CCN1C(=O)N(CC)C2SC(N/N=C/c3ccc(OC)cc3)=NC21 (stereo unspecified) | 314 nM |  |
| Nc1ncnc2c1N=C(c1ccc3c(c1)OCO3)CC(c1ccc(Cl)cc1)N2 (stereo unspecified) | 10100 nM | 54900 nM |
| Cc1ccc(O)cc1Nc1ccnc2ccc(S(C)(=O)=O)cc12 | 2040 nM | 9370 nM |
| CCNc1nc(O)c(/C=C2\C=Nc3ncccc32)s1 | 1990 nM | 4270 nM |
| COc1ccc2c(c1)c(-c1nc(-c3c[nH]c4ncccc34)cs1)cn2CCCN1CCOCC1 | 2520 nM | 5250 nM |
